Read-outs that look alike come from different tables or passages of the source.

The assay is described as follows: APP processing: AlphaLisa assay of secreted Aβ40 and Aβ42 from SP4CT cells. Format: cell-based. Conditions: Homo sapiens, SH-SY5Y cells expressing amyloid β protein (SP4CT cells). An outline of the steps: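 Media from compound-treated SP4CT cells (SH-SY5Y expressing amyloid β protein) was assayed by AlphaLisa. Donor beads carried biotinylated 4G8 anti-Aβ antibody; acceptor beads carried G210 (Aβ40) or 12F4 (Aβ42) in separate plates, with luminescence proportional to peptide abundance.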

Setting [1] is: read-out: IC50, inhibition of production of Aβ40 peptide.
Setting [2] is: read-out: IC50, inhibition of production of Aβ42 peptide.

In the case of `CCn1nc(Oc2ccc(C(F)(F)F)cc2)c(Cl)c1-c1cccc(C(C)(C)NS(=O)(=O)CC(F)(F)F)c1` [Example 113, N-[2-(3-{4-chloro-1-ethyl-3-[4-(trifluoromethyl)phenoxy]-1H-pyrazol-5-yl}phenyl)propan-2-yl]-2,2,2-trifluoroethanesulfonamide], the IC50 is, setting by setting: under setting [1], under 200 nM; under setting [2], under 200 nM.

Turning to `CCn1nc(Oc2ccc(C(F)(F)F)cc2)c(Br)c1-c1cccc(C(C)(C)NS(=O)(=O)CC(F)(F)F)c1` [Example 114, N-[2-(3-{4-Bromo-1-ethyl-3-[4-(trifluoromethyl)phenoxy]-1H-pyrazol-5-yl}phenyl)propan-2-yl]-2,2,2-trifluoroethanesulfonamide], the IC50 under setting [1] was under 200 nM and the IC50 under setting [2] was under 200 nM.

Consider `CCn1nc(-c2cccc(C(C)(C)NS(=O)(=O)CC(F)(F)F)c2)c(Br)c1Oc1ccc(C(F)(F)F)cc1` [Example 115, N-[2-(3-{4-bromo-1-ethyl-5-[4-(trifluoromethyl)phenoxy]-1H-pyrazol-3-yl}phenyl)propan-2-yl]-2,2,2-trifluoroethanesulfonamide], for which the IC50 under setting [1] was under 200 nM and the IC50 under setting [2] was under 200 nM.

Consider `CCn1nc(-c2cccc(C(C)(C)NS(=O)(=O)CC(F)(F)F)c2)c(I)c1Oc1ccc(C(F)(F)F)cc1` [Example 116, N-[2-(3-{1-ethyl-4-iodo-5-[4-(trifluoromethyl)phenoxy]-1H-pyrazol-3-yl}phenyl)propan-2-yl]-2,2,2-trifluoroethanesulfonamide], for which the IC50 by setting is: under setting [1], under 200 nM; under setting [2], under 200 nM.

With `CCn1nc(-c2cccc(C(C)(C)NS(=O)(=O)CC(F)(F)F)c2)c(C#N)c1Oc1ccc(C(F)(F)F)cc1` [Example 117, N-[2-(3-{4-cyano-1-ethyl-5-[4-(trifluoromethyl)phenoxy]-1H-pyrazol-3-yl}phenyl)propan-2-yl]-2,2,2-trifluoroethanesulfonamide], the IC50 runs as follows: under setting [1], under 200 nM; under setting [2], under 200 nM.

For `CCn1nc(-c2cccc(C(C)(C)NS(=O)(=O)CC(F)(F)F)c2)c(C=O)c1Oc1ccc(C(F)(F)F)cc1` [Example 118, N-[2-(3-{1-ethyl-4-formyl-5-[4-(trifluoromethyl)phenoxy]-1H-pyrazol-3-yl}phenyl)propan-2-yl]-2,2,2-trifluoroethanesulfonamide], the IC50 is, setting by setting: under setting [1], under 200 nM; under setting [2], under 200 nM.

For the molecule `CCn1nc(-c2cccc(C(C)(C)NS(=O)(=O)CC(F)(F)F)c2)c(C#Cc2ccccc2)c1Oc1ccc(C(F)(F)F)cc1` [Example 119, N-[2-(3-{1-ethyl-4-(phenylethynyl)-5-[4-(trifluoromethyl)phenoxy]-1H-pyrazol-3-yl}phenyl)propan-2-yl]-2,2,2-trifluoroethanesulfonamide], the half-maximal inhibitory concentration (IC50) was under 200 nM under setting [1] and under 200 nM under setting [2].

With `CCn1nc(Oc2ccc(C(F)(F)F)cc2)cc1-c1ccc2c(c1)CC(NS(=O)(=O)NCC(F)(F)F)C2` (stereo not shown) [Example 120, (N-[5-(1-Ethyl-3-(4-trifluoromethylphenoxy)-1H-pyrazol-5-yl)-2,3-dihydro-1H-inden-2-yl]-N′-(2,2,2-trifluoroethyl)sulfuric diamide)], the IC50 is, setting by setting: under setting [1], under 200 nM; under setting [2], under 200 nM.

With `CCn1nc(-c2ccc3c(c2)CC(NS(=O)(=O)NCC(F)(F)F)C3)cc1Oc1ccc(C(F)(F)F)cc1` (stereo not shown) [Example 121], the concentration for half-maximal inhibition (IC50) is, setting by setting: under setting [1], under 200 nM; under setting [2], under 200 nM.

Regarding `CCn1nc(Oc2ccc(C(F)(F)F)cn2)cc1-c1ccc2c(c1)CC(NS(=O)(=O)NCC(F)(F)F)C2` (stereo not shown) [Example 122, N-[5-(1-ethyl-3-{[5-(trifluoromethyl)pyridin-2-yl]oxy}-1H-pyrazol-5-yl)-2,3-dihydro-1H-inden-2-yl]-N′-(2,2,2-trifluoroethyl)sulfamide], the IC50 reads like this: under setting [1], under 200 nM; under setting [2], under 200 nM.

As for `CCCNS(=O)(=O)NC1Cc2ccc(-c3cc(Oc4ccc(C(F)(F)F)cc4)nn3CC)cc2C1` (stereo not shown) [Example 123, N-(5-{1-ethyl-3-[4-(trifluoromethyl)phenoxy]-1H-pyrazol-5-yl}-2,3-dihydro-1H-inden-2-yl)-N′-propylsulfamide], the IC50 is under 200 nM under setting [1] and under 200 nM under setting [2].

Take `CCn1nc(Oc2ccc(C(F)(F)F)cc2)cc1-c1ccc2c(c1)CC(NS(=O)(=O)NCC(C)C)C2` (stereo not shown) [Example 124, N-(5-{1-ethyl-3-[4-(trifluoromethyl)phenoxy]-1H-pyrazol-5-yl}-2,3-dihydro-1H-inden-2-yl)-N′-isobutylsulfamide]: the IC50 is, setting by setting: under setting [1], under 200 nM; under setting [2], under 200 nM.

With `CCn1nc(Oc2ccc(C(F)(F)F)cc2)cc1-c1ccc2c(c1)CC(NS(=O)(=O)NC1CCC1)C2` (stereo not shown) [Example 125, N-cyclobutyl-N′-(5-{1-ethyl-3-[4-(trifluoromethyl)phenoxy]-1H-pyrazol-5-yl}-2,3-dihydro-1H-inden-2-yl)sulfamide], the IC50 is, setting by setting: under setting [1], under 200 nM; under setting [2], under 200 nM.

Regarding `CCn1nc(-c2cncc(C3(NS(=O)(=O)CC(F)(F)F)COC3)c2)cc1Oc1ccc(C(F)(F)F)cc1` [Example 126, N-[3-(5-{1-ethyl-5-[4-(trifluoromethyl)phenoxy]-1H-pyrazol-3-yl}pyridine-3-yl)oxetan-3-yl]-2,2,2-trifluoroethanesulfonamide], the IC50 was under 200 nM under setting [1] and under 200 nM under setting [2].

Turning to `CCn1nc(-c2cncc(C3(NS(=O)(=O)NCC(F)(F)F)COC3)c2)cc1Oc1ccc(C(F)(F)F)cc1` [Example 127, N-[3-(5-{1-ethyl-5-[4-(trifluoromethyl)phenoxy]-1H-pyrazol-3-yl}pyridine-3-yl)oxetan-3-yl]-N′-(2,2,2-trifluoroethyl)sulfamide], the IC50 was under 200 nM under setting [1] and under 200 nM under setting [2].

In the case of `CCn1nc(-c2cccc(C3(NS(=O)(=O)CC(F)(F)F)COC3)c2)cc1Oc1ccc(C#N)cc1` [Example 128], the IC50 under setting [1] was under 200 nM and the half-maximal inhibitory concentration (IC50) under setting [2] is under 200 nM.

For `CCn1nc(-c2cccc(C3(NS(=O)(=O)NCC(F)(F)F)COC3)c2)cc1Oc1ccc(C#N)cc1` [Example 129, N-(3-{3-[5-(4-cyanophenoxy)-1-ethyl-1H-pyrazol-3-yl]phenyl}oxetane-3-yl)-N′-(2,2,2-trifluoroethyl)sulfamide], the 50% inhibitory concentration (IC50) reads like this: under setting [1], under 200 nM; under setting [2], under 200 nM.

As for `CCn1nc(-c2cccc(C3(NS(=O)(=O)NC4CC(F)(F)C4)COC3)c2)cc1Oc1ccc(C#N)cc1` [Example 130, N-(3-{3-[5-(4-cyanophenoxy)-1-ethyl-1H-pyrazol-3-yl]phenyl}oxetane-3-yl)-N′-(3,3-difluorocyclobutyl)sulfamide], the IC50 is under 200 nM under setting [1] and under 200 nM under setting [2].

Take `CN(C)C(=O)Cn1nc(-c2cccc(C3(NS(=O)(=O)CC(F)(F)F)COC3)c2)cc1Oc1ccc(C(F)(F)F)cc1` [Example 131, 2-[5-(4-trifluoromethylphenoxy)-3-(3-{3-[(2,2,2-trifluoroethylsulfonyl)amino]oxetan-3-yl}phenyl)-1H-pyrazol-1-yl]-N,N-dimethylacetamide]: the half-inhibitory concentration (IC50) was under 200 nM under setting [1] and under 200 nM under setting [2].

For `CNC(=O)Cn1nc(-c2cccc(C3(NS(=O)(=O)CC(F)(F)F)COC3)c2)cc1Oc1ccc(C(F)(F)F)cc1` [Example 132, 2-[5-(4-trifluoromethylphenoxy)-3-(3-{3-[(2,2,2-trifluoroethylsulfonyl)amino]oxetan-3-yl}phenyl)-1H-pyrazol-1-yl]-N-methylacetamide], the IC50 was under 200 nM under setting [1] and under 200 nM under setting [2].
